Reference: patent US20240279214A1, “ALPHA4 BETA7 INEGRIN ANTAGONISTS AND USES THEREOF” (XinThera, Inc., priority 2022, published 2024)

Target: T1, a4b7 integrin interaction with MadCAM-1 (Homo sapiens, UniProt P13612+P26010)
T1 construct: capture of a4b7 integrin expressing cells, RPMI8866; endogenous in cells; host or cells: RPMI8866
T1 sequence (P13612 34-1032): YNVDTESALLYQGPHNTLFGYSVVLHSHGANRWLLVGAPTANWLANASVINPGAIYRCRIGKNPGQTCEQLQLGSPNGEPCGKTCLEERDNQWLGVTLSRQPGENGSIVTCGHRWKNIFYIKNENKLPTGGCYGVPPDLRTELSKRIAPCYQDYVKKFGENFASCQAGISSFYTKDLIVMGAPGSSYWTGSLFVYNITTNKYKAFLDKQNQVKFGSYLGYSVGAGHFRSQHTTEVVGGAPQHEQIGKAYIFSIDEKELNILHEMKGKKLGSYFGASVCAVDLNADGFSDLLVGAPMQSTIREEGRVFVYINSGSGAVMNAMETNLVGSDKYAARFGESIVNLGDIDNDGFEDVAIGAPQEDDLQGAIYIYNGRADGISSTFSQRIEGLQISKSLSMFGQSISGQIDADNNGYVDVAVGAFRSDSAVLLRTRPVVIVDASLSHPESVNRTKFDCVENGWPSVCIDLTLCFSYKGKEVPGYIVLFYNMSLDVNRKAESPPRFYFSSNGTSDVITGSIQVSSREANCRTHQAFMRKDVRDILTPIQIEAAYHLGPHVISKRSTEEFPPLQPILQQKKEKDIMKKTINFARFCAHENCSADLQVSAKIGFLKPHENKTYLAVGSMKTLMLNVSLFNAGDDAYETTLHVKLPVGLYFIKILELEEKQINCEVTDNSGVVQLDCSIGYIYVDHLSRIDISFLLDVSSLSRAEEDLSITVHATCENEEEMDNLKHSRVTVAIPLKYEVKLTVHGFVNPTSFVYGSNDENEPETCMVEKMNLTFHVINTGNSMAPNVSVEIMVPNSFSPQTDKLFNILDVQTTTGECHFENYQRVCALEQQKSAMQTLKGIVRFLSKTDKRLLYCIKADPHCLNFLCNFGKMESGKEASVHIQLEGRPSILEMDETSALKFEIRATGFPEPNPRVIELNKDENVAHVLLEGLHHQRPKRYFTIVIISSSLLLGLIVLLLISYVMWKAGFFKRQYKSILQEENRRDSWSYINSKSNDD
T1 sequence (P26010 20-798): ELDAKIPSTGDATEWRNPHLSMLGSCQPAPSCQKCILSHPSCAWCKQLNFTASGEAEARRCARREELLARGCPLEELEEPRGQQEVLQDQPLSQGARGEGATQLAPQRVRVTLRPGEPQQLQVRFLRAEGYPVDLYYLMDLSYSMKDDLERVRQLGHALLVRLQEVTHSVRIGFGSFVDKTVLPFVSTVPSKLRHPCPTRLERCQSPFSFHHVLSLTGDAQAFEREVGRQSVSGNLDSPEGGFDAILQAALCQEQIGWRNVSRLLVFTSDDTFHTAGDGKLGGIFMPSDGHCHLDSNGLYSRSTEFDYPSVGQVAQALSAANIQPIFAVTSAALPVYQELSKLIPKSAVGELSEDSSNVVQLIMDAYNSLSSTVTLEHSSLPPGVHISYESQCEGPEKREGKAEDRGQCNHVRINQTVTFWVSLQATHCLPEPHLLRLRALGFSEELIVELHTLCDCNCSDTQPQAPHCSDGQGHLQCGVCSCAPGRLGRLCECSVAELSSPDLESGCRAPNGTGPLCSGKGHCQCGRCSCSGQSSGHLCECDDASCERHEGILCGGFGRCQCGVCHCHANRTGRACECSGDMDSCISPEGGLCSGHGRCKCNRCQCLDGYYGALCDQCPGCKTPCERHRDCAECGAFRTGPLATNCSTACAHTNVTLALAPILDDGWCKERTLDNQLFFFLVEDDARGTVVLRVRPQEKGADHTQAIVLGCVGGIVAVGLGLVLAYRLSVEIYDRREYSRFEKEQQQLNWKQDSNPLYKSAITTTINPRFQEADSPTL
Assay: a4b7 Cell Capture Assay (RPMI8866 cells on MAdCAM-1 Fc coated plates)
Format: cell-based
Details: 50% human serum, 1 mM MgCl2, 1 hour incubation, CellTiter-Glo luminescence, read-out: a4B7 cell capture assay RMPI8866-MadCAM EC50
Experimental: The potency of inhibitors in preventing a4b7 integrin interaction with MadCAM-1 was measured by monitoring the capture of a4b7 integrin expressing cells, RPMI8866, on recombinant human MAdCAM-1 Fc chimera protein-coated plates. The protein was a fusion between human MAdCAM-1 (Met1-Gln333, Accession #AAY82472) and human IgG1 (Pro100-Lys330)] (R&D Systems, Catalog #6056-MC). 96-well plates (Thermofisher, Catalog #136102) were coated with the recombinant protein by dispensing 100 μL (1.0 μg/mL) per well. After a quick spin to settle down the coating solution using a plate centrifuge, plates were incubated overnight at 4° C. in a moisture chamber. On Day 2, the plates were washed with PBS using a Bluecatbio Blue®Washer (GentleSpin wash, 3 cycles, pressure=1, volume 150 uL). Blocking solution (1.0% BSA in PBS, Sigma, Catalog #A7979) was then added at 200 uL/well, and the plates were quickly spun to settle down blocking buffer and incubated in cell culture incubator at 37° C. and 5% CO2 for 1 hour. The plates were then washed with 0.1% BSA in PBS using a Bluecatbio Blue®Washer (GentleSpin wash, 3 cycles, pressure=1, volume 150 uL). RPMI8866 cells suspended in assay medium (1 mM MgCl2 25 mM HEPES and 50% human serum, Sigma, Catalog #H4522) at a density of 1.0×10^6 cells/mL were added at 100 uL/well. Each compound evaluated was prepared as a DMSO stock solution. Test compounds were evaluated with a 9-point serial dilution curve (1000, 333.3, 111.1, 55.6, 27.8, 13.9, 6.9, 2.3, and 0.77 nM)) and were added to the plates using a Tecan D.30e Digita dispenser, the dispensed stock is 100 nL and the final DMSO concentration is 0.1%. Potent compounds were re-evaluated at a new 9-point serial dilution curve (100, 33.3, 11.1, 5.6, 2.8, 1.4, 0.69, 0.23, and 0.08 nM). Each titration curves were performed in triplicate on the same plate, and most of compounds were retested in different dates multiple times. The plates were shaken at 300 rpm on orbital plate shaker for 3 minutes to mix the cells and compounds, quickly spun to settle the cells and solution, and incubated in cell culture incubator at 37° C. and 5% CO2. After 1 hour incubation, the unbound cells were washed away with RPMI1640 medium supplemented with 1 mM MgCl2 and 1% BSA) (wash buffer) using a Bluecatbio Blue®Washer (MagbeadsSpin wash, 1 cycle, pressure 1, volume=150 uL). After wash buffer removal, A mixture of wash buffer/CellTiter-Glo® Reagent (Pormega, catalog #G7573) at 1:1 (V/V) was added at volume of 100 uL to each well. The plates were placed in a chamber at 25° C. and incubated for 30 minutes. Luminescence was recorded using a Envision plate reader 2105 according to CellTiter-Glo protocol.
The mean luminescence signals from negative control wells without MadCAM-1 coating and compound treatment (cells only) was defined as 100% binding inhibition, and the mean luminescence signals from positive control wells with MadCAM-1 coating but without compound treatment (MadCAM-1 and cells only) was defined as 0% binding inhibition. The luminescence signals from other compound treated wells were normalized in percentage scale accordingly. The normalized mean % inhibition data were plotted against logarithmic compound concentration in nanomolar and were fitted with 4-parameter logistic model to obtain IC50 for each compound.

| SMILES | EC50 |
| --- | --- |
| Cc1cc2cc(c1F)[C@H](CC(=O)O)NC(=O)[C@H](n1cc(CCN3CC(F)C3)c(C(F)(F)F)cc1=O)c1cccc(c1)Cc1cccc(C)c1-2 (relative stereo) [Example 2, [(14R*,17S)-19-fluoro-14-{5-[2-(3-fluoroazetidin-1-yl)ethyl]-2-oxo-4-(trifluoromethyl)pyridin-1-yl}-3,20-dimethyl-15-oxo-16-azatetracyclo[16.3.1.1^{9,13}.0^{2,7}]tricosa-1(22),2(7),3,5,9,11,13(23),18,20-nonaen-17-yl]acetic acid] | 76 nM |
| Cc1cc(C)c2c(c1)Oc1cccc(c1)[C@H](n1cc(CCN3CC(F)C3)c(C(F)(F)F)cc1=O)C(=O)N[C@@H](CC(=O)O)c1cc-2cc(C(F)(F)F)c1F (relative stereo) [Example 4, [(14R*,17S)-19-fluoro-14-{5-[2-(3-fluoroazetidin-1-yl)ethyl]-2-oxo-4-(trifluoromethyl)pyridin-1-yl}-3,5-dimethyl-15-oxo-20-(trifluoromethyl)-8-oxa-16-azatetracyclo[16.3.1.1^{9,13}.0^{2,7}]tricosa-1(21),2(7),3,5,9,11,13(23),18(22),19-nonaen-17-yl]acetic acid] | 440 nM |
| Cc1cc(C(F)(F)F)cc2c1-c1cc(c(F)c(C(F)(F)F)c1)[C@H](CC(=O)O)NC(=O)[C@@H](n1cc(CCN3CC(F)C3)c(C(F)(F)F)cc1=O)c1cccc(c1)O2 (relative stereo) [Example 5, [(14R*,17S)-19-fluoro-14-{5-[2-(3-fluoroazetidin-1-yl)ethyl]-2-oxo-4-(trifluoromethyl)pyridin-1-yl}-3-methyl-15-oxo-5,20-bis(trifluoromethyl)-8-oxa-16-azatetracyclo[16.3.1.1^{9,13}.0^{2,7}]tricosa-1(21),2(7),3,5,9,11,13(23),18(22),19-nonaen-17-yl]acetic acid] | 330 nM |
| Cc1cccc2c1-c1cc(c(F)c(C(F)(F)F)c1)[C@H](CC(=O)O)NC(=O)[C@@H](n1cc(CCN3CC(F)C3)c(C(F)(F)F)cc1=O)c1cccc(c1)O2 (relative stereo) [Example 6, rel-2-((5S,8S)-14-fluoro-5-(5-(2-(3-fluoroazetidin-1-yl)ethyl)-2-oxo-4-(trifluoromethyl)pyridin-1(2H)-yl)-26-methyl-6-oxo-15-(trifluoromethyl)-3-oxa-7-aza-1,4(1,3),2(1,2)-tribenzenacyclooctaphane-8-yl)acetic acid] | 230 nM |

Results, then the molecule that gave them:

| EC50 | SMILES |
| --- | --- |
| 72 nM | Cc1cccc2c1-c1cc(C3CC3)c(F)c(c1)[C@H](CC(=O)O)NC(=O)[C@@H](n1cc(CCN3CC(F)C3)c(C(F)(F)F)cc1=O)c1cccc(c1)O2 (relative stereo) [Example 9, [(14R*,17S)-20-cyclopropyl-19-fluoro-14-{5-[2-(3-fluoroazetidin-1-yl)ethyl]-2-oxo-4-(trifluoromethyl)pyridin-1-yl}-3-methyl-15-oxo-8-oxa-16-azatetracyclo[16.3.1.1^{9,13}.0^{2,7}]tricosa-1(21),2(7),3,5,9,11,13(23),18(22),19-nonaen-17-yl]acetic acid] |
| 970 nM | Cc1ccc(C)c2c1Oc1cccc(c1)[C@H](n1cc(CCN3CC(F)C3)c(C(F)(F)F)cc1=O)C(=O)N[C@@H](CC(=O)O)c1cc-2cc(C(F)(F)F)c1F (relative stereo) [Example 12, [(14R*,17S)-19-fluoro-14-{5-[2-(3-fluoroazetidin-1-yl)ethyl]-2-oxo-4-(trifluoromethyl)pyridin-1-yl}-3,6-dimethyl-15-oxo-20-(trifluoromethyl)-8-oxa-16-azatetracyclo[16.3.1.1^{9,13}.0^{2,7}]tricosa-1(22),2(7),3,5,9,11,13(23),18,20-nonaen-17-yl]acetic acid] |
| > 1000 nM | O=C(O)C[C@@H]1NC(=O)[C@@H](n2cc(CCN3CC(F)C3)c(C(F)(F)F)cc2=O)c2cccc(c2)Oc2cccc(C(F)(F)F)c2-c2cc1c(F)c(C(F)(F)F)c2 (relative stereo) [Example 13, [(14R*,17S)-19-fluoro-14-{5-[2-(3-fluoroazetidin-1-yl)ethyl]-2-oxo-4-(trifluoromethyl)pyridin-1-yl}-15-oxo-3,20-bis(trifluoromethyl)-8-oxa-16-azatetracyclo[16.3.1.1^{9,13}.0^{2,7}]tricosa-1(22),2(7),3,5,9,11,13(23),18,20-nonaen-17-yl]acetic acid] |
| 38 nM | Cc1cccc2c1-c1cc(c(F)c(C(F)(F)F)c1)[C@H](CC(=O)O)NC(=O)[C@@H](n1cc(CCN3CC(F)C3)c(C(F)(F)F)cc1=O)c1cc(cc(C(F)(F)F)c1)O2 (relative stereo) [Example 14, [(14R*,17S)-19-fluoro-14-{5-[2-(3-fluoroazetidin-1-yl)ethyl]-2-oxo-4-(trifluoromethyl)pyridin-1-yl}-3-methyl-15-oxo-11,20-bis(trifluoromethyl)-8-oxa-16-azatetracyclo[16.3.1.1^{9,13}.0^{2,7}]tricosa-1(22),2(7),3,5,9,11,13(23),18,20-nonaen-17-yl]acetic acid] |
